Results on eight molecules are retold here after PMC12000391, “Selective molecular inhibition of the HDAC6 ZnF-UBP binding domain impairs multiple myeloma cell function” (Cell Death Discovery, 2025).

Ends that are not written are not given here.

Sequences and labels used below:
B1: HDAC6 ZnF-UBP 1109-1215 (protein)
chain: PLPWCPHLVAVCPIPAAGLDVTQPCGDCGTIQENWVCLSCYQVYCGRYINGHMLQHHGNSGHPLVLSYIDLSAWCYYCQAYVHHQALLDVKNIAHQNKFGEDMPHPH

The target in one test is T1, HDAC6 ZnF-UBP binding domain (ZnF-UBP^WT peptide, HDAC6^1109-1215) (Homo sapiens, UniProt Q9UBN7).
T1 construct: methods b47 print 1190-1215, apparently a misprint), expressed in E. coli BL21 Star (DE3), HisTrap purified
T1 sequence (Q9UBN7 1109-1215): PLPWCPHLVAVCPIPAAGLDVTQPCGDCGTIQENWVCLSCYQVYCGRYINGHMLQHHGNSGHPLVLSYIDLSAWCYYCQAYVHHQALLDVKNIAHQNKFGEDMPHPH
Kind of test: fluorescence polarization displacement of FITC-RLRGG. The source says:
fluorescence polarization displacement of FITC-RLRGG on HDAC6 ZnF-UBP binding domain (ZnF-UBP^WT peptide, HDAC6^1109-1215)
On the technique in general: In fluorescence polarisation assays a small probe gives low polarisation when free and higher when bound to something large.
`Cc1ccc2nc(CCC(=O)O)n(C)c(=O)c2c1` [1d, Quinazolinone 1 d] yielded an IC50 of 13.6 ± 1 µM.

Molecule `Cn1c(CCC(=O)O)nc2cc([N+](=O)[O-])ccc2c1=O` [1f, Quinazolinone 1 f] gave an IC50 of 2.3 ± 0.2 µM.

Take `Cn1c(CCC(=O)O)nc2ccccc2c1=O` [1a, quinazolinone 1a]: the IC50 was 2.7 ± 0.3 µM.

`Cn1c(CCC(=O)O)nc2cc(Cl)ccc2c1=O` [1e, Quinazolinone 1e] returned an IC50 of 1.9 ± 0.1 µM.

`Cc1ccc2c(=O)n(C)c(CCC(=O)O)nc2c1` [1g, Quinazolinone 1 g] returned an IC50 of 2.1 ± 0.1 µM.

Turning to `Cn1c(CCC(=O)O)nc2ccc(Cl)cc2c1=O` [1b, Quinazolinone 1b], the IC50 stood at 1.9 ± 0.2 µM.

In turn, `COc1ccc2nc(CCC(=O)O)n(C)c(=O)c2c1` [1c, Quinazolinone 1c] had an IC50 of 2.1 ± 0.5 µM.

Another test has as its target T2, ubiquitin C-terminal pentapeptide RLRGG (Homo sapiens, also: FITC label, site not given here).
T2 chain: RLRGG
As to the kind of experiment: fluorescence polarization.
B1 yielded a Kd of 680 nM.

Broadly, the IC50 is the concentration at which inhibition is half-maximal. Read a high IC50 as weaker potency. A word on the Kd: it is the concentration at which binding is half-saturated. A low value points to tighter binding.
